Assays:
[1] = target: T1, PI3K-α (PIK3CA) H1047R mutant, p110α/p85α complex (Homo sapiens, UniProt P42336, H1047R); experiment: PI3K-alpha kinase (PIK3CA) biochemical activity, ADP-Glo, H1047R mutant; details: Soy PI lipid substrate
T1 construct: Recombinant, catalytically active human full length PIK3KA Wild-type and H1047R mutant; 6×His (N); purchased EMD Millipore Sigma 14-792M
Procedure, shortened: (§1)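 ADP formation measured by ADP-Glo luminescence after reaction at 27 °C to about 10% ATP turnover, using 20 uM ATP, 50 uM PIP2diC8 or soy PI lipid, HEPES pH 7.4 with MgCl2. Enzyme (1-5 nM WT or H1047R p110α/p85α) and compound preincubated 1 h first; 10-point 1:3 curves fitted four-parameter for IC50.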

[2] = target: PI3K-α (PIK3CA) in MDA-MB-453 cells (Homo sapiens, UniProt P42336); experiment: PI3K-alpha kinase (PIK3CA) in vitro cell based assay, MDA-MB-453 cells, SureFire Ultra AlphaLisa; details: read-out: PI3K-α (PIK3CA) in vitro cell based assay IC50
PI3K-α (PIK3CA) in MDA-MB-453 cells, sequence (P27986 2-724): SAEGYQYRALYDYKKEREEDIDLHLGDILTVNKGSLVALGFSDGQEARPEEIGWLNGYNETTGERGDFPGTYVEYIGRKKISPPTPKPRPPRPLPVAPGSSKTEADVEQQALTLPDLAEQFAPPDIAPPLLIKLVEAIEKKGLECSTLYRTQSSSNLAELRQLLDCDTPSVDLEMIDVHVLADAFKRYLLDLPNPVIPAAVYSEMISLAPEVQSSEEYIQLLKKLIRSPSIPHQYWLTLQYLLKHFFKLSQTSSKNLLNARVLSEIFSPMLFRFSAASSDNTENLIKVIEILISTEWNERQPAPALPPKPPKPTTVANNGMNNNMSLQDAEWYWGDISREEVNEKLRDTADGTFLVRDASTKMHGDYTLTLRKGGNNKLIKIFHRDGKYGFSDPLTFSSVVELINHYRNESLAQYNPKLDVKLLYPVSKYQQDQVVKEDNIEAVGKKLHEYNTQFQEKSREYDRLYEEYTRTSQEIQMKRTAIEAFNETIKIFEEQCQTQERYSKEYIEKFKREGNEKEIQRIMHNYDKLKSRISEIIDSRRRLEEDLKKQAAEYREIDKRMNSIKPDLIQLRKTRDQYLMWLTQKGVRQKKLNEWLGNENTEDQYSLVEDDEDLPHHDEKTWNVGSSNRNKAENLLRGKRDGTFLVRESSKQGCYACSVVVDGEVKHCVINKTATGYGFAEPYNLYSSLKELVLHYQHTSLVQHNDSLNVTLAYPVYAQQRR
PI3K-α (PIK3CA) in MDA-MB-453 cells, sequence (P42336 whole entry): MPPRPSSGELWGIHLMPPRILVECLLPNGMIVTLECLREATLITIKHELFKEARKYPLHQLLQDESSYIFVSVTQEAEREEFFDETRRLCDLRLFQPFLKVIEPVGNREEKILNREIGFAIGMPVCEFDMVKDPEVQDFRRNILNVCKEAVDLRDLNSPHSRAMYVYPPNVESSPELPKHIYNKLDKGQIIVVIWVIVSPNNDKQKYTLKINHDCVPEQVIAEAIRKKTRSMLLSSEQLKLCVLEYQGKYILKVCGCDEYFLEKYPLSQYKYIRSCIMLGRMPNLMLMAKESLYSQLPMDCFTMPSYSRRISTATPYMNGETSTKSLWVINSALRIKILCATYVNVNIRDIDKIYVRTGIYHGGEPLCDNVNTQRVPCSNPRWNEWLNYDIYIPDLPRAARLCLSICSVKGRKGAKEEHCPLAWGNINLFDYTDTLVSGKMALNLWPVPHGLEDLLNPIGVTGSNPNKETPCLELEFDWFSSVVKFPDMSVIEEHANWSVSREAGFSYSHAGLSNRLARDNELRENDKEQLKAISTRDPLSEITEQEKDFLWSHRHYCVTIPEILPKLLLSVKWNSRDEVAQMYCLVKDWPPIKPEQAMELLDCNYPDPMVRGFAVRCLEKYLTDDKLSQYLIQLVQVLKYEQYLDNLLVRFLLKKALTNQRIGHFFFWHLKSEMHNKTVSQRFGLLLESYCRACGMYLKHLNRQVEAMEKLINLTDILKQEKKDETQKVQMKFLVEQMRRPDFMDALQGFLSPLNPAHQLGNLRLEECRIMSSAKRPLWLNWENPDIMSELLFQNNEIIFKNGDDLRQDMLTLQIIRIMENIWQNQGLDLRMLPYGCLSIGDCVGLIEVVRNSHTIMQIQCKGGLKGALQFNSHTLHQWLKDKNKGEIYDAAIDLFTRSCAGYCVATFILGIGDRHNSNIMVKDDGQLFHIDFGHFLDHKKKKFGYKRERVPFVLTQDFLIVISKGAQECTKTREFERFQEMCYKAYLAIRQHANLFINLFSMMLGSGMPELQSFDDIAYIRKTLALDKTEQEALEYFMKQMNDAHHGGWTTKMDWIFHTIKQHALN
Procedure, shortened: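 Cells treated 3 h in serum-free MEM with 1 μg/mL insulin, 10-point 1:3 series in 0.3% DMSO, then lysed for SureFire Ultra AlphaLisa read-out. Inhibition normalized to DMSO (max) and 1 μM GDC-0032 (min); duplicate averages fitted by 4-parameter logistic for relative IC50.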

[3] = target: T2, PI3K-α (PIK3CA) wild-type (WT), p110α/p85α complex (Homo sapiens, UniProt P42336); experiment: PI3K-alpha kinase (PIK3CA) biochemical activity, ADP-Glo, wild-type; details: Soy PI lipid substrate
T2 construct: Recombinant, catalytically active human full length PIK3KA Wild-type and H1047R mutant; 6×His (N); purchased EMD Millipore Sigma 14-602M
Procedure, shortened: as §1

T1 sequence (P42336 whole entry H1047R): as the sequence (P42336 whole entry) above, with H1047R counted along it
T1 sequence (P27986 whole entry partner): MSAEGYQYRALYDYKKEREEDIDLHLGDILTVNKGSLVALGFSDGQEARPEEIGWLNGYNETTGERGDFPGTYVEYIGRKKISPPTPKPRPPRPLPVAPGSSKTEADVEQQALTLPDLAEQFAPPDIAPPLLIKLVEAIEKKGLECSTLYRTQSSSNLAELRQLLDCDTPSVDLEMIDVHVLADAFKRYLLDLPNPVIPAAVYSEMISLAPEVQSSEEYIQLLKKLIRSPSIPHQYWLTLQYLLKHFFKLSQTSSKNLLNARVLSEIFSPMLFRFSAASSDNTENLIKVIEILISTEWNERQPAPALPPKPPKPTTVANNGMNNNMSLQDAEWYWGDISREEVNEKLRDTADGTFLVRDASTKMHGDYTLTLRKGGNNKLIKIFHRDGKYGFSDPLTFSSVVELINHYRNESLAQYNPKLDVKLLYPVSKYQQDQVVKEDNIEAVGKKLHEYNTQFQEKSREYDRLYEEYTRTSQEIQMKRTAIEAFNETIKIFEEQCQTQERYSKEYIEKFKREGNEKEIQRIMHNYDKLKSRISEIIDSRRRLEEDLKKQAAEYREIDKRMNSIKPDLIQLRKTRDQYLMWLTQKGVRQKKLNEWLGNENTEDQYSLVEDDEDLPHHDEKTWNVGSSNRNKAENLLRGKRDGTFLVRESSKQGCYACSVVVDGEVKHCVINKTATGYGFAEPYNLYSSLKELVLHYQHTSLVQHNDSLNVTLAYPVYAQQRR

Cc1cc(C(C)Nc2ccccc2C(=O)O)c2oc(-n3ncc4ccccc43)cc(=O)c2c1 (single isomer, unassigned) [Example 49, 2-[1-(2-Indazol-1-yl-6-methyl-4-oxo-chromen-8-yl)ethylamino]benzoic acid]
IC50 [1]: < 500 nM | IC50 [2]: < 50 nM | IC50 [3]: 500 to 1000 nM

Cc1cc([C@@H](C)Nc2ccc(F)cc2C(=O)O)c2oc(-c3ccc4c(cnn4C)c3)c(C)c(=O)c2c1 [Example 260, 2-[[(1R)-1-[3,6-Dimethyl-2-(1-methylindazol-5-yl)-4-oxo-chromen-8-yl]ethyl]amino]-5-fluoro-benzoic acid]
IC50 [1]: < 500 nM | IC50 [2]: < 50 nM | IC50 [3]: < 500 nM

Cc1cc(C(C)Nc2ccccc2C(=O)O)c2oc(-c3cc4cccnc4cn3)cc(=O)c2c1 (single isomer, unassigned) [Example 187, 2-[1-[6-Methyl-2-(1,7-naphthyridin-6-yl)-4-oxo-chromen-8-yl]ethylamino]benzoic acid]
IC50 [1]: < 500 nM | IC50 [2]: < 50 nM | IC50 [3]: 1000 to 5000 nM

Cc1cc([C@@H](C)Nc2cccnc2C(=O)O)c2oc(-c3ccc4nn(C)cc4c3)c(C)c(=O)c2c1 [Example 240, 3-[[(1R)-1-[3,6-Dimethyl-2-(2-methylindazol-5-yl)-4-oxo-chromen-8-yl]ethyl]amino]pyridine-2-carboxylic acid]
IC50 [1]: 500 to 1000 nM | IC50 [2]: 50 to 100 nM | IC50 [3]: 1000 to 5000 nM

CC(Nc1ccccc1C(=O)O)c1cc(F)cc2c(=O)cc(-c3cc4ccccc4[nH]3)oc12 (single isomer, unassigned) [Example 128, 2-[1-[6-Fluoro-2-(1H-indol-2-yl)-4-oxo-chromen-8-yl]ethylamino]benzoic acid]
IC50 [1]: < 500 nM | IC50 [2]: < 50 nM | IC50 [3]: 500 to 1000 nM

Cc1cc([C@@H](C)Nc2ccc(Cl)nc2C(=O)O)c2oc(-c3cc4ccccc4[nH]3)c(C)c(=O)c2c1 [Example 196, 6-Chloro-3-[[(1R)-1-[2-(1H-indol-2-yl)-3,6-dimethyl-4-oxo-chromen-8-yl]ethyl]amino]pyridine-2-carboxylic acid]
IC50 [1]: < 500 nM | IC50 [2]: < 50 nM | IC50 [3]: 1000 to 5000 nM

Cc1cc(C(C)Nc2ccccc2C(=O)O)c2oc(-c3ccc4cn[nH]c4c3)c(C)c(=O)c2c1 (single isomer, unassigned) [Example 120, 2-[1-[2-(1H-Indazol-6-yl)-3,6-dimethyl-4-oxo-chromen-8-yl]ethylamino]benzoic acid]
IC50 [1]: < 500 nM | IC50 [2]: < 50 nM | IC50 [3]: 500 to 1000 nM

Cc1cc(C(C)Nc2ccccc2C(=O)O)c2oc(-c3ccc4c(cnn4C)c3)cc(=O)c2c1 (single isomer, unassigned) [Example 26, 2-[1-[6-Methyl-2-(1-methylindazol-5-yl)-4-oxo-chromen-8-yl]ethylamino]benzoic acid]
IC50 [1]: < 500 nM | IC50 [2]: < 50 nM | IC50 [3]: < 500 nM

Cc1cc(C(C)Nc2ccccc2C(=O)O)c2oc(-c3cccc4nn(C)cc34)cc(=O)c2c1 (single isomer, unassigned) [Example 111, 2-[1-[6-Methyl-2-(2-methylindazol-4-yl)-4-oxo-chromen-8-yl]ethylamino]benzoic acid]
IC50 [1]: < 500 nM | IC50 [2]: 100 to 500 nM | IC50 [3]: 500 to 1000 nM

Cc1cc(C(C)Nc2ccccc2C(=O)O)c2oc(-c3cnc4c(c3)OCCO4)cc(=O)c2c1 (single isomer, unassigned) [Example 163, 2-[1-[2-(2,3-Dihydro-[1,4]dioxino[2,3-b]pyridin-7-yl)-6-methyl-4-oxo-chromen-8-yl]ethylamino]benzoic acid]
IC50 [1]: < 500 nM | IC50 [2]: 50 to 100 nM | IC50 [3]: 5000 to 10000 nM

Cc1cc([C@@H](C)Nc2ccc(C(F)(F)F)cc2C(=O)O)c2oc(-c3ccc4nc(C)sc4n3)c(C)c(=O)c2c1 [Example 234, 2-[[(1R)-1-[3,6-Dimethyl-2-(2-methylthiazolo[5,4-b]pyridin-5-yl)-4-oxo-chromen-8-yl]ethyl]amino]-5-(trifluoromethyl)benzoic acid]
IC50 [1]: 1000 to 5000 nM | IC50 [2]: 100 to 500 nM | IC50 [3]: 1000 to 5000 nM

Cc1cc([C@@H](C)Nc2ccccc2C(=O)O)c2oc(-c3cc4cnccc4o3)c(C(F)(F)F)c(=O)c2c1 [Example 209, 2-[[(1R)-1-[2-Furo[3,2-c]pyridin-2-yl-6-methyl-4-oxo-3-(trifluoromethyl)chromen-8-yl]ethyl]amino]benzoic acid]
IC50 [1]: < 500 nM | IC50 [2]: < 50 nM | IC50 [3]: 500 to 1000 nM

Cc1cc(C(C)Nc2ccccc2C(=O)O)c2oc(-c3cc4ccccc4[nH]3)cc(=O)c2c1 (single isomer, unassigned) [Example 68, 2-[1-[2-(1H-Indol-2-yl)-6-methyl-4-oxo-chromen-8-yl]ethylamino]benzoic acid]
IC50 [1]: < 500 nM | IC50 [2]: < 50 nM | IC50 [3]: 500 to 1000 nM

Cc1cc(C(C)Nc2ccccc2C(=O)O)c2oc(-c3cc(F)c4nn(C)cc4c3)cc(=O)c2c1 (single isomer, unassigned) [Example 97, 2-[1-[2-(7-Fluoro-2-methyl-indazol-5-yl)-6-methyl-4-oxo-chromen-8-yl]ethylamino]benzoic acid]
IC50 [1]: < 500 nM | IC50 [2]: < 50 nM | IC50 [3]: 1000 to 5000 nM

Cc1cc([C@@H](C)Nc2ccc(F)cc2C(=O)O)c2oc(-c3ccc4cnn(C)c4c3)cc(=O)c2c1 [Example 238, 5-Fluoro-2-[[(1R)-1-[6-methyl-2-(1-methylindazol-6-yl)-4-oxo-chromen-8-yl]ethyl]amino]benzoic acid]
IC50 [1]: < 500 nM | IC50 [2]: < 50 nM | IC50 [3]: < 500 nM

Cc1cc([C@@H](C)Nc2ccc(F)cc2C(=O)O)c2oc(-c3ccc4nc(C)sc4n3)c(C)c(=O)c2c1 [Example 254, 2-[[(1R)-1-[3,6-Dimethyl-2-(2-methylthiazolo[5,4-b]pyridin-5-yl)-4-oxo-chromen-8-yl]ethyl]amino]-5-fluoro-benzoic acid]
IC50 [1]: < 500 nM | IC50 [2]: < 50 nM | IC50 [3]: 500 to 1000 nM

Cc1cc(C(C)Nc2ccccc2C(=O)O)c2oc(-c3cnn4ccccc34)cc(=O)c2c1 (single isomer, unassigned) [Example 125, 2-[1-(6-Methyl-4-oxo-2-pyrazolo[1,5-a]pyridin-3-yl-chromen-8-yl)ethylamino]benzoic acid]
IC50 [1]: < 500 nM | IC50 [2]: < 50 nM | IC50 [3]: 1000 to 5000 nM

Cc1cn2cc(-c3cc(=O)c4cc(F)cc(C(C)Nc5ccccc5C(=O)O)c4o3)ccc2n1 (single isomer, unassigned) [Example 51, 2-[1-[6-Fluoro-2-(2-methylimidazo[1,2-a]pyridin-6-yl)-4-oxo-chromen-8-yl]ethylamino]benzoic acid]
IC50 [1]: < 500 nM | IC50 [2]: < 50 nM | IC50 [3]: 1000 to 5000 nM

Cc1cc([C@@H](C)Nc2ccc(C(F)(F)F)cc2C(=O)O)c2oc(-c3ccc4nn(C)cc4c3)c(C)c(=O)c2c1 [Example 235, 2-[[(1R)-1-[3,6-Dimethyl-2-(2-methylindazol-5-yl)-4-oxo-chromen-8-yl]ethyl]amino]-5-(trifluoromethyl)benzoic acid]
IC50 [1]: < 500 nM | IC50 [2]: 50 to 100 nM | IC50 [3]: 1000 to 5000 nM

Cc1cc(C(C)Nc2ccccc2C(=O)O)c2oc(-c3ccc4[nH]nc(C)c4c3)cc(=O)c2c1 (single isomer, unassigned) [Example 61, 2-[1-[6-Methyl-2-(3-methyl-1H-indazol-5-yl)-4-oxo-chromen-8-yl]ethylamino]benzoic acid]
IC50 [1]: < 500 nM | IC50 [2]: 50 to 100 nM | IC50 [3]: 500 to 1000 nM

Cc1cc(C(C)Nc2ccc(Cl)nc2C(=O)O)c2oc(-c3ccc4cnn(C)c4c3)cc(=O)c2c1 (single isomer, unassigned) [Example 219, 6-Chloro-3-[1-[6-methyl-2-(1-methylindazol-6-yl)-4-oxo-chromen-8-yl]ethylamino]pyridine-2-carboxylic acid]
IC50 [1]: 1000 to 5000 nM | IC50 [2]: > 500 nM | IC50 [3]: 1000 to 5000 nM

Cc1cc(C(C)Nc2ccccc2C(=O)O)c2oc(-c3ccc4cn[nH]c4c3)cc(=O)c2c1 (single isomer, unassigned) [Example 63, 2-[1-[2-(1H-Indazol-6-yl)-6-methyl-4-oxo-chromen-8-yl]ethylamino]benzoic acid]
IC50 [1]: < 500 nM | IC50 [2]: < 50 nM | IC50 [3]: 500 to 1000 nM

Cc1cc([C@@H](C)Nc2ccc(Cl)cc2C(=O)O)c2oc(-c3ccc4nn(C)cc4c3)c(C)c(=O)c2c1 [Example 258, 5-Chloro-2-[[(1R)-1-[3,6-dimethyl-2-(2-methylindazol-5-yl)-4-oxo-chromen-8-yl]ethyl]amino]benzoic acid]
IC50 [1]: < 500 nM | IC50 [2]: < 50 nM | IC50 [3]: 500 to 1000 nM

Cc1cc(C(C)Nc2ccccc2C(=O)O)c2oc(-c3ccc4c(c3)NC(=O)C4)cc(=O)c2c1 (single isomer, unassigned) [Example 115, 2-[1-[6-Methyl-4-oxo-2-(2-oxoindolin-6-yl)chromen-8-yl]ethylamino]benzoic acid]
IC50 [1]: < 500 nM | IC50 [2]: 100 to 500 nM | IC50 [3]: 1000 to 5000 nM

Cc1cc([C@@H](C)Nc2ccc(Cl)nc2C(=O)O)c2oc(-c3nc4ccccc4o3)c(C)c(=O)c2c1 [Example 263, 3-[[(1R)-1-[2-(1,3-benzoxazol-2-yl)-3,6-dimethyl-4-oxo-chromen-8-yl]ethyl]amino]-6-chloro-pyridine-2-carboxylic acid; 2,2,2-trifluoroacetic acid]
IC50 [1]: < 500 nM | IC50 [2]: < 50 nM | IC50 [3]: 1000 to 5000 nM

From patent US11878970B2, “Allosteric chromenone inhibitors of phosphoinositide 3-kinase (PI3K) for the treatment of disease” (Petra Pharma Corporation, priority 2021, dated 2024)
